For the test, the system named is lymphocytic leukemia P388. Kind of test: Lymphocytic Leukemia P388 Test. It is filed as in vivo, BDFl mice. The note with it: for Median Survival: mice, 30 days observation; for T/C x 100: ratio of survival time treated/control, 125 or over = significant. The source says: Certain in vivo testing systems and protocols have been developed by the National Cancer Institute for testing compounds to determine their suitability as antineoplastic agents. These have been reported in "Cancer Chemotherapy Reports", Part III, Volume 3, No. 2 (1972), Geran, et al. These protocols have established standardized screening tests which are generally followed in the field of testing for antitumor agents. Of these systems, lymphocytic leukemia P388 is particularly significant to the present invention. This neoplasm is utilized for testing as transplantable tumors in mice. Significant antitumor activity shown in this protocol by a percentage increase of mean survival times of the treated(T) animals over the control(C) animals is indicative of similar results in human leukemias and solid tumors.
The animals used were BDFl mice, all of one sex, weighing a minimum of 17 g and all within a 3 g weight range. There were 5 or 6 mice per test group. The tumor transplant was by intraperitoneal injection of 0.5 ml of dilute ascitic fluid containing 10⁶ cells of lymphocytic leukemia P388. The test compounds were administered intraperitoneally at a volume of 0.5 ml in 0.2% Klucel in normal saline on days 1, 5 and 9 (relative to tumor inoculation) at the indicated doses. The mice were weighed and survivors recorded on a regular basis for 30 days. The median survival time and the ratio of survival time for treated(T)/control(C) animals were calculated. The positive control compound for LL-E33288ε-I was 1,4-dihydroxy-5,8-bis[[2-(2-hydroxyethylamino)ethyl]amino]anthraquinone, dihydrochloride (U. S. Patent 4,197,249). The positive control compound for dethiomethylγ₁-I was 1,4-bis[2-(2-hydroxyethylamino)ethylamino]-5,8-dihydroxyanthroquinone dihydrochloride, Lederle Laboratories, Pearl River, New York ("Novantrone"). The controls were given as an intraperitoneal injections in 0.5 ml of 0.2% Klucel on days 1, 5 and 9 at the indicated doses.
If T/C X 100 (%) is 125 or over, the tested compound is considered to have significant anti-tumor activity.

Where [1] appears, read: Dose 0.4 mg/kg intraperitoneally on days 1, 5 and 9.
Setting [2] is: Dose 0.8 mg/kg intraperitoneally on days 1, 5 and 9.
Where [3] appears, read: Dose 1.6 mg/kg intraperitoneally on days 1, 5 and 9.

For `Cl.Cl.O=C1c2c(O)ccc(O)c2C(=O)c2c(NCCNCCO)ccc(NCCNCCO)c21` [Positive Control, 1,4-dihydroxy-5,8-bis[[2-(2-hydroxyethylamino)ethyl]amino]anthraquinone, dihydrochloride], the “Median Survival” value by setting is: under setting [1], 21.5 days; under setting [2], greater than 30 days; under setting [3], 27 days. Also, the “T/C x 100” value under setting [1] was 215%, the “T/C x 100” value under setting [2] was greater than 300% and the “T/C x 100” value under setting [3] is 270%.
